Laboratory results published in US20070191316A1, “VITAMIN D ANALOG - NEL, METHODS AND USES THEREOF” (WISCONSIN ALUMNI RESEARCH FOUNDATION, priority 2006, published 2007).
Entries after “also recorded” stand apart in the source; their conditions may differ.

Key:
cell differentiation = settings: prior art; cited from earlier work
[1] = cited from earlier work; for calcemic activity as compared to 1α,25-dihydroxyvitamin D3: prior-art patents
vitamin D receptors = target: T1, vitamin D receptors (Homo sapiens, UniProt P11473); settings: prior-art patents; cited from earlier work
T1 sequence (P11473 1-427): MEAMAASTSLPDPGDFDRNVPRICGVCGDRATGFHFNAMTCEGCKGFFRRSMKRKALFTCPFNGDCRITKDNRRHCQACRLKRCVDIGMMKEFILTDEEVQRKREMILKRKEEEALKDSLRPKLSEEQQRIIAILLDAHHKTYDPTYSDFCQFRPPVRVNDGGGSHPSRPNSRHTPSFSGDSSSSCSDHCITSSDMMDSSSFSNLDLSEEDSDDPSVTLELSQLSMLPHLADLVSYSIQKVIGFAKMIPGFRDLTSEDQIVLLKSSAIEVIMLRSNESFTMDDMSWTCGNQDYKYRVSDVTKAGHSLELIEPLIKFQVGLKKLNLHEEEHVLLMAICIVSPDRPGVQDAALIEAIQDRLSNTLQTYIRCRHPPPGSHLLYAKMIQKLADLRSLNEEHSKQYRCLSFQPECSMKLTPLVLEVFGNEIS

[2] = target: T2, full-length recombinant rat vitamin D receptor (Rattus norvegicus, UniProt P13053); assay: Vitamin D receptor competitive binding with [3H]-1,25-(OH)2-D3; settings: competition with [3H]-1,25-(OH)2-D3, recombinant rat receptor; FIG. 1
T2 construct: Full-length recombinant rat receptor was expressed in E. coli BL21(DE3) Codon Plus RIL cells; histidine tag (C); made in house; host or cells: E. coli BL21(DE3) Codon Plus RIL
T2 sequence (P13053 1-423): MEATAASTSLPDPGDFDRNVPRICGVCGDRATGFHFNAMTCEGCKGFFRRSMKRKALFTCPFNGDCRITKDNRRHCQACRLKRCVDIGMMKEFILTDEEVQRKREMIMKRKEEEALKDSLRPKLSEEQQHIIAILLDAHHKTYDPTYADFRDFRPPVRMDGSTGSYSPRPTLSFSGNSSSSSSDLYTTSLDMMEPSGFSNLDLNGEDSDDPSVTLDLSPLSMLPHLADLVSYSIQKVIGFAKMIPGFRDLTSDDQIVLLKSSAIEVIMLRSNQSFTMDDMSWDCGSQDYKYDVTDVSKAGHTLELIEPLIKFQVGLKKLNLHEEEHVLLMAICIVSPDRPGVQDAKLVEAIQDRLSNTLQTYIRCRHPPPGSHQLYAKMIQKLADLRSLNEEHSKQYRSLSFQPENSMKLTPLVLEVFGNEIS
Description: The first system was a nickel affinity resin that utilizes the C-terminal histidine tag on this protein. The protein that was eluted from this resin was further purified using ion exchange chromatography (S-Sepharose Fast Flow). Aliquots of the purified protein were quick frozen in liquid nitrogen and stored at −80° C. until use. For use in binding assays, the protein was diluted in TEDK50 (50 mM Tris, 1.5 mM EDTA, pH7.4, 5 mM DTT, 150 mM KCl) with 0.1% Chaps detergent. The receptor protein and ligand concentration was optimized such that no more than 20% of the added radiolabeled ligand was bound to the receptor.
The following day, 100 mcl of hydroxylapatite slurry (50%) was added to each tube and mixed at 10-minute intervals for 30 minutes. The hydroxylapaptite was collected by centrifugation and then washed three times with Tris-EDTA buffer (50 mM Tris, 1.5 mM EDTA, pH 7.4) containing 0.5% Titron X-100. After the final wash, the pellets were transferred to scintillation vials containing 4 ml of Biosafe II scintillation cocktail, mixed and placed in a scintillation counter. Total binding was determined from the tubes containing only radiolabeled ligand.

[3] = tested on: 24-hdyroxylase (24Ohase) gene promoter in ROS 17/2.8 (bone) cells; assay: In vitro transcription assay (luciferase reporter); format: cell-based; settings: Ros17/2.8 (bone) cells, 24-hydroxylase promoter-luciferase, 16 h; FIG. 5
Description: FIG. 5 is a graph comparing the in vitro transcription activity of NEL with that of 1,25(OH)2D3.
(C) In vitro Transcription Assay
Transcription activity was measured in ROS 17/2.8 (bone) cells that were stably transfected with a 24-hdyroxylase (24Ohase) gene promoter upstream of a luciferase reporter gene (Arbour et al., 1998). Cells were given a range of doses. Sixteen hours after dosing the cells were harvested and luciferase activities were measured using a luminometer. (RLU=relative luciferase units)

[4] = tested on: Human promyelocytic leukemia (HL60) cells; assay: HL-60 differentiation (nitro blue tetrazolium reduction); format: cell-based; settings: 4 days, NBT reduction, FIG. 4
Description: FIG. 4 is a graph comparing the percent HL-60 cell differentiation as a function of the concentration of NEL with that of 1,25(OH)2D3.
(B) HL-60 Differentiation
The study drugs were dissolved in ethanol and the concentrations determined using UV spectrophotometry. Serial dilutions were prepared so that a range of drug concentrations could be tested without changing the final concentration of ethanol (≦0.2%) present in the cell cultures.
Human promyelocytic leukemia (HL60) cells were grown in RPMI-1640 medium containing 10% fetal bovine serum. The cells were incubated at 37° C. in the presence of 5% CO2.
HL60 cells were plated at 1.2×10^5 cells/ml. Eighteen hours after plating, cells in duplicate were treated with drug. Four days later, the cells were harvested and a nitro blue tetrazolium reduction assay was performed (Collins et al., 1979; J. Exp. Med. 149:969-974). The percentage of differentiated cells was determined by counting a total of 200 cells and recording the number that contained intracellular black-blue formazan deposits. Verification of differentiation to monocytic cells was determined by measuring phagocytic activity (data not shown).

[5] = Intestinal calcium transport (everted gut sac method); format: in vivo, Sprague-Dawley rats; settings: rats, four consecutive ip doses; equimolar or 27 times the dose of 1α,25-dihydroxyvitamin D3; FIG. 3
From the text: FIG. 3 is a bar graph comparing the intestinal calcium transport activity of NEL with that of 1,25(OH)2D3.
(§1) (D) Intestinal Calcium Transport and Bone Calcium Mobilization
(§2) Male, weanling Sprague-Dawley rats were placed on Diet 11 (0.47% Ca) diet+AEK for one week followed by Diet 11 (0.02% Ca)+AEK for 3 weeks. The rats were then switched to a diet containing 0.47% Ca for one week followed by two weeks on a diet containing 0.02% Ca. Dose administration began during the last week on 0.02% calcium diet. Four consecutive ip doses were given approximately 24 hours apart. Twenty-four hours after the last dose, blood was collected from the severed neck and the concentration of serum calcium determined as a measure of bone calcium mobilization. The first 10 cm of the intestine was also collected for intestinal calcium transport analysis using the everted gut sac method.

[6] = Bone calcium mobilization (serum calcium); format: in vivo, Sprague-Dawley rats; settings: rats, four consecutive ip doses; equimolar or 27 times the dose of 1α,25-dihydroxyvitamin D3; FIG. 2
From the text: FIG. 2 is a bar graph comparing the bone calcium mobilization activity of NEL with that of 1,25(OH)2D3.
as §1, §2

[7] = PTH suppression and hypercalcemia; format: in vivo, Sprague-Dawley rats; settings: normal rats; expected
Description: (E) PTH Suppression and Hypercalcemia
Adult, female Sprague-Dawley rats are obtained from Harlan (Madison, Wis.).
Upon receipt, the animals are identified by individual tail marks. Animals may then be housed in suspended, stainless steel, wire-bottom cages. Each cage may contain one animal. The animal rooms are maintained at a temperature of 68 to 72° F. and a relative humidity of 25 to 75%. The holding rooms are set to provide 12 hours of light per day. Water and a purified rodent diet (Suda et al., Purified Rodent Diet-Diet 11) containing […] 0.3% phosphorus and fat soluble vitamins A, D, E and K are provided ad libitum
Animals are randomly assigned to treatment groups (5 animals/group). All doses are administered intraperitoneally in 100 microliters of propylene glycol. […]
Twenty-four hours after the final dose, blood is collected from the tail artery and the concentration of bioactive serum PTH is measured using the rat BioActive Intact PTH ELISA Kit from Immutopics, Inc. (San Clemente, Calif.).
Twenty-four hours after the final dose, approximately 1 ml of blood is collected from the tail artery of each experimental animal. […] The level of calcium is determined by diluting the serum into 0.1% lanthum chloride and measuring the absorbance on an atomic absorption spectrophotometer (Perkin Elmer Model 3110, Shelton, Conn.).

## C[C@H](CCCC(C)(C)O)[C@H]1CC[C@H]2/C(=C/C=C3C[C@@H](O)C[C@H](O)C3)CCC[C@]12C [1α,25-dihydroxy-19-nor-vitamin D3]
Cell differentiation
  cell differentiation activity: high potency
[1]; prior art
  calcium mobilizing activity: very low

## 1α-hydroxy-2-methylene-19-nor-bishomopregnacalciferol
Vitamin D receptors
  binding activity to vitamin D receptors: relatively high
Cell differentiation
  cell differentiation activity: relatively high
[1]
  calcemic activity as compared to 1α,25-dihydroxyvitamin D3: little if any

## 1α-hydroxy-2-methylene-19-nor-(20S)-homopregnacalciferol
Vitamin D receptors
  binding activity to vitamin D receptors: relatively high
Cell differentiation
  cell differentiation activity: relatively high
[1]
  calcemic activity as compared to 1α,25-dihydroxyvitamin D3: little if any

## C=C1[C@H](O)CC(=C/C=C2\CCC[C@]3(C)[C@@H]([C@H](C)CCCC(C)O)CC[C@@H]23)C[C@H]1O (stereo partly drawn) [NEL, (20R, 25S)-2-Methylene-19,26-dinor-1α,25-dihydroxyvitamin D3]
[2]
  binding to the vitamin D receptor compared with 1α,25-dihydroxyvitamin D3: somewhat more active; also recorded: relatively high binding
[3]
  stimulating transcription of a reporter gene compared with 1α,25-dihydroxyvitamin D3: equally active
[4]
  inducing differentiation of HL-60 cells compared with 1α,25-dihydroxyvitamin D3: equally active
[5]
  intestinal calcium transport activity compared with 1α,25-dihydroxyvitamin D3: limited calcemic activity; also recorded: very low intestinal calcium transport activity
[6]
  bone calcium mobilization (serum calcium) compared with 1α,25-dihydroxyvitamin D3: limited calcemic activity; also recorded: very low ability to mobilize calcium from bone
[7]
  suppressing parathyroid hormone levels: significant activity

## C=C1[C@H](O)CC(=C/C=C2\CCC[C@]3(C)[C@@H](CC)CC[C@@H]23)C[C@H]1O [1α-hydroxy-2-methylene-19-nor-pregnacalciferol]
Vitamin D receptors
  binding activity to vitamin D receptors: relatively high
Cell differentiation
  cell differentiation activity: relatively high
[1]
  calcemic activity as compared to 1α,25-dihydroxyvitamin D3: little if any
